Reference: publication PMC12591484 (PLOS One, 2025)

Columns and labels:
Experiment in all cases: Drug protection from pCMBS modification (SCAMP)
Type in all cases: cell-based
Design in all cases: key: +: Mutant-function studies are deemed positive when bulky mutations (mostly tryptophans) at the site significantly reduce positive modulation by anesthetics; -: Negative results are indicated by “–“ symbols
[1] = target: T1, α1M236Cβ3γ2L GABAA receptors (Homo sapiens, UniProt P14867+P18507+P28472, M263C); details: results of this study (*); some cells also cite [9]
T1 construct: expressed in transfected cells; host or cells: Xenopus oocytes injected with capped mRNA, 1α:1β:5γ
Method: (§1) Experiments were performed in ND-96 buffer at room temperature (20–22°C). Oocytes were placed in a low-volume (30µl) flow chamber and impaled with borosilicate microelectrodes filled with 3M KCl (resistance 0.5–3 MΩ) and voltage-clamped at −50 mV (model OC-725C; Warner Instruments, Hamden, CT, USA). Superfusate solutions in ND-96 were delivered at 2 ml/min from glass syringe reservoirs via computer-controlled valves (VC-8; Warner Instruments), a micro-manifold (ALA-VM8; ALA Scientific Instruments, Farmingdale, NY, USA), and PTFE tubing. Currents were digitized at 200 Hz on a computer running ClampEx v8.0 software (Molecular Devices, San Jose, CA, USA). Digitized traces were filtered with a 10-Hz low-pass Bessel function, leak corrected and analyzed for peak amplitude off-line using Clampfit v8 software (Molecular Devices).
(§2) Drug protection from pCMBS modification was assessed under pCMBS exposure conditions that produced approximately half of the maximal modification ratio for each mutant receptor, and a least a value of 3. This approach balanced the magnitude of functional modification signals (smaller with less pCMBS exposure) against the challenge of using a reversibly bound ligand to competitively block an irreversible covalent cysteine-modifying reaction. […] Each oocyte was used in a single SCAMP experiment. […] Etomidate was used as a positive control for anesthetic protection in α1M236C and β3M286C mutants and as a negative control in α1S270C, α1A291C, β3L231C, γ2S301C, γ2I242C, and γ2L246C mutants. R-mTFD-MPAB was used as a positive control in α1S270C, α1A291C, β3L231C, and γ2LS301C mutants and as a negative control in α1M236C and β3M286C mutants. For each cysteine mutant and protective drug combination, five oocytes were studied.
(§3) Non-linear least squares fits and statistical analyses were performed in Prism 10.4.0. (GraphPad Software, San Diego, CA, USA). […] Protection (steric inhibition of pCMBS modification) was inferred when anesthetics produced significant reductions in modification ratios relative to control (no anesthetic) values. The statistical significance threshold was p < 0.05.

[2] = target: T2, α1β3M286Cγ2L GABAA receptors (Homo sapiens, UniProt P14867+P18507+P28472, M311C); details: results of this study (*); etomidate cell also cites [16]
T2 construct: expressed in transfected cells; host or cells: Xenopus oocytes injected with capped mRNA, 1α:1β:5γ
Method: as §1, §2, §3

[3] = target: T3, α1S270Cβ3γ2L GABAA receptors (Homo sapiens, UniProt P14867+P18507+P28472, S297C); details: results of this study (*)
T3 construct: expressed in transfected cells; host or cells: Xenopus oocytes injected with capped mRNA, 1α:1β:5γ
Method: as §1, §2, §3

T2 sequence (P14867 28-456): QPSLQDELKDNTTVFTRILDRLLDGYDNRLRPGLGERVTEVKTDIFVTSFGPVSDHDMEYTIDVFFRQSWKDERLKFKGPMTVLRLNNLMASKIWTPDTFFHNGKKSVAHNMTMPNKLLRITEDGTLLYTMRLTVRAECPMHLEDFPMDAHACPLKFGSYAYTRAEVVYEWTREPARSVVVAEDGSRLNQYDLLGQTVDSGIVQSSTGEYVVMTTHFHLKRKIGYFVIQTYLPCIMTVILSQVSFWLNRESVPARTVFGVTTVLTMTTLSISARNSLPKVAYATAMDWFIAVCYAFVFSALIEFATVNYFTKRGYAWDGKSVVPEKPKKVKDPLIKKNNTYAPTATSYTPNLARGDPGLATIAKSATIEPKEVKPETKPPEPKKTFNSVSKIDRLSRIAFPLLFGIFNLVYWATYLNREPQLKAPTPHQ
T2 sequence (P28472 26-473 M311C): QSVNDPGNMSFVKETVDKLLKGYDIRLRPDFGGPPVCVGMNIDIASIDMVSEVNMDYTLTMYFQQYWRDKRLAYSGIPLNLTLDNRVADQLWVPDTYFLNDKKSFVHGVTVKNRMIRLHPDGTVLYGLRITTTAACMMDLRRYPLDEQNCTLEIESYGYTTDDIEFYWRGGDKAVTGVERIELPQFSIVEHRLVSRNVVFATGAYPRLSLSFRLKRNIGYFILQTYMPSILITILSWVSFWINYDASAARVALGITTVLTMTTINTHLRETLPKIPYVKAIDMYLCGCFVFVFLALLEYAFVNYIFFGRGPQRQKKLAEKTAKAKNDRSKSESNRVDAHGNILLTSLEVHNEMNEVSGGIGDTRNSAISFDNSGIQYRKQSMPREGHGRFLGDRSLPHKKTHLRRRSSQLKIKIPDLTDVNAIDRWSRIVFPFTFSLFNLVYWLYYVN
T2 sequence (P18507 40-475): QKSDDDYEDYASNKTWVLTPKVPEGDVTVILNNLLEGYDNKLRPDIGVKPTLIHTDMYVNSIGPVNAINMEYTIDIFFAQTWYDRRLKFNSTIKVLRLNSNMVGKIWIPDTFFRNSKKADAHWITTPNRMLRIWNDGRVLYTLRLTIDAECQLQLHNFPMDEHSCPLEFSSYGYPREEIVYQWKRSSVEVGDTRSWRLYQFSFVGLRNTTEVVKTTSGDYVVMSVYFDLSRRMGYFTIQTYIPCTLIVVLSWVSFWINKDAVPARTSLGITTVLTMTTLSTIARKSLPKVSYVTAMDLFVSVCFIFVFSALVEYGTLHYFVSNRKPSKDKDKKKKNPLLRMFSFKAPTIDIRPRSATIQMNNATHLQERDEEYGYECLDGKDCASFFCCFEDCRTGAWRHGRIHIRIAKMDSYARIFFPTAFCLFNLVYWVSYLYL
T1 sequence (P14867 28-456 M263C): as the sequence (P14867 28-456) above, with M236C counted along it
T1 sequence (P28472 26-473): as the sequence (P28472 26-473 M311C) above, with C286M counted along it
T1 sequence (P18507 40-475): as the sequence (P18507 40-475) above
T3 sequence (P14867 28-456 S297C): as the sequence (P14867 28-456) above, with S270C counted along it
T3 sequence (P28472 26-473): as the sequence (P28472 26-473 M311C) above, with C286M counted along it
T3 sequence (P18507 40-475): as the sequence (P18507 40-475) above

Row | Structure (SMILES) | SCAMP result, α1– (M1) M236 [1] | SCAMP result, β3+ (M2, M3) M286 [2] | SCAMP result, α1+ (M2, M3) S270 [3]
1 | C=CCC1(c2cccc(C3(C(F)(F)F)N=N3)c2)C(=O)NC(=O)N(C)C1=O (stereo not drawn) [R-mTFD-MPAB, R-5-allyl-1-methyl-5-(m-trifluoromethyl-diazirynylphenyl) barbituric acid] | -^[9], * | -* | –
2 | CCOC(=O)c1cncn1[C@H](C)c1ccccc1 [etomidate, R-etomidate] | – | – | -*
3 | CC(C)c1cc(C2(C(F)(F)F)N=N2)cc(C(C)C)c1CO [pTFD-di-iPr-BnOH] | -* | -* | -*
